The values that follow come from patent US8921576B2, “Spiroindoline compound, and medicinal agent comprising same” (Kowa Company, Ltd., priority 2011, dated 2014).

This assay has as its target T1, GST-GK derived from human liver GK (Homo sapiens, UniProt P35557).
T1 construct: made in house; host or cells: Escherichia coli DH5α
T1 sequence (P35557 1-466 isoform P35557-2): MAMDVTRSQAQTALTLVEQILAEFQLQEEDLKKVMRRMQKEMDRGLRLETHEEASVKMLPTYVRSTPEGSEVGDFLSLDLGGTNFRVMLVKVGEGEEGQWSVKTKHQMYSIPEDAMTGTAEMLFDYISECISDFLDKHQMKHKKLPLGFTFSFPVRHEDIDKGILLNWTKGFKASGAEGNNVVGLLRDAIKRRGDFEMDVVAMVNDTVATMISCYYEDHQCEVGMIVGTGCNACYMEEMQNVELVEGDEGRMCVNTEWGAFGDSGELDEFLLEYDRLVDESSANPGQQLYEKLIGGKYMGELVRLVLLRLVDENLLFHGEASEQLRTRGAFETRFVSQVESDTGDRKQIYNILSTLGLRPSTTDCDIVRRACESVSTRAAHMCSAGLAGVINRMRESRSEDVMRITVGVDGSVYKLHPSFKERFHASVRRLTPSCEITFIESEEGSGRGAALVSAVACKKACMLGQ
The assay is described as follows: In vitro GK activity measurement test (G6PDH-coupled, OD340). The assay is classed as biochemical. The settings on record: test compound 1 μmol/L; glucose 2.5 mmol/L; 25° C.; OD340 slope with compound / without compound; read-out: GK activation rate (%). The source says:
cDNA (GenBank Accession No. NM_033507, human glucokinase, variant 2) encoding human liver-type GK polypeptide was cloned by performing a polymerase chain reaction (hereinafter referred to as “PCR”) using a human liver cDNA library (Human liver QUICK-Clone cDNA, TAKARA BIO INC.), and the thus cloned cDNA was then introduced into an expression vector (pGEX-3X, GE Healthcare Japan) for glutathione S transferase (hereinafter referred to as GST) fusion protein expression. The resulting vector was introduced into Escherichia coli (Competent high DH5α, Toyobo Co., Ltd.), and the transformed Escherichia coli was then cultured at 37° C. Thereafter, Isopropyl β-D-1-thiogalactopyranoside (final concentration: 1 mmol/L, Sigma Aldrich Japan) was added to the culture, and the obtained mixture was then cultured at 30° C. for 3 hours. Thereafter, a cell mass was recovered. The recovered cell mass was subjected to freezing-and-thawing, and the resulting cell mass was then suspended in phosphate buffer with final concentration of 1% Triton X-100, followed by disintegration with an ultrasonic disruptor. The homogenate was centrifuged at 33,200 rpm at 4° C. for 1 hour. Thereafter, the supernatant was recovered, and a GST-GK fusion protein was then purified using a glutathione column (GSTrap FF, GE Healthcare Japan). The obtained GST-GK fusion protein was divided into some portions each having a small volume, and the thus divided proteins were then preserved at −80° C.
A GK assay method was carried out at 25° C. at a final incubation volume of 100 μL in a flat-bottom 96-well assay plate. An assay buffer comprised 25 mmol/L Hepes buffer (pH 7.1), 25 mmol/L KCl, 2.5 mmol/L or 10 mmol/L D-glucose, 5 mmol/L ATP, 1 mmol/L nicotinamide adenine dinucleotide phosphate (abbreviated as NADP), 2 mmol/L MgCl2, 1 mmol/L dithiothreitol (DTT), 2 units/mL glucose-6 phosphate dehydrogenase (G6PDH), and 1 μg/mL GST-GK derived from human liver GK. ATP, G6PDH, and NADP were purchased from Roche Diagnostics. […] The thus mixed solution was preincubated in an incubator in which the temperature was controlled at 25° C. for 15 minutes. Subsequently, the reaction was initiated by adding 10 μL of the GST-GK solution to the reaction mixture, resulting in a final concentration of 0.1 μg/mL. After initiation of the reaction, an increase in the optical concentration at 340 nm (OD340) was monitored with a microplate spectrophotometer (Varsamax, Molecular Devices Japan K.K.) every 10 seconds over an incubation period of 10 minutes. An inclination of the OD340 increase was defined as raw data. The GK activating rate was indicated as a numerical value obtained from the expression: (Inclination of OD340 increase by addition of the test compound)/(inclination of OD340 increase without addition of the test compound). The results of the GK activating rate obtained at a test compound concentration of 1 μmol/L under the condition of a glucose concentration of 2.5 mmol/L are shown in the following table.
As for `COC(=O)N1CCC2(C1)CN(C(=O)Nc1ncc(SC(C)CO)s1)c1ccc(Cl)cc12` (stereo not drawn) [Example 141, methyl 5-chloro-1-((5-((1-hydroxypropan-2-yl)thio)thiazol-2-yl)carbamoyl)spiro[indoline-3,3′-pyrrolidine]-1′-carboxylate], the activity at 1 µM stood at 574%.

In the case of `CNC(=O)N1CCC2(C1)CN(C(=O)Nc1ncc(Cl)s1)c1ccc(C(F)(F)F)cc12` (stereo not drawn) [Example 432, N1-(5-Chlorothiazol-2-yl)-N1′-methyl-5-(trifluoromethyl)spiro[indoline-3,3′-pyrrolidine]-1,1′-dicarboxamide], the activity at 1 µM was 613%. Under `CNC(=O)N1CC[C@@]2(C1)CN(C(=O)Nc1ncc(OC)s1)c1ccc(Cl)cc12` [Example 380, (R)-5-Chloro-N1-(5-methoxythiazol-2-yl)-N1′-methylspiro[indoline-3,3′-pyrrolidine]-1,1′-dicarboxamide] stands 636%; under `CNC(=O)CCCSc1cnc(NC(=O)N2CC3(CCN(C(=O)OC)C3)c3cc(Cl)ccc32)s1` (stereo not drawn) [Example 164, methyl 5-chloro-1-((5-((4-(methylamino)-4-oxobutyl)thio)thiazol-2-yl)carbamoyl)spiro[indoline-3,3′-pyrrolidine]-1′-carboxylate], 567%. The same measure for `CC(=O)N1CCC2(C1)CN(C(=O)Nc1ncc(Cl)s1)c1ccc(C(F)(F)F)cc12` (stereo not drawn) [Example 431, 1′-acetyl-N-(5-chlorothiazol-2-yl)-5-(trifluoromethyl)spiro[indoline-3,3′-pyrrolidine]-1-carboxamide]: 432%. As to `COc1ccc2nc(NC(=O)N3CC4(CCN(C(C)=O)C4)c4cc(S(=O)(=O)NCc5ccccc5OC)ccc43)sc2n1` (stereo not drawn) [Example 263, 1′-Acetyl-5-(N-(2-methoxybenzyl)sulfamoyl)-N-(5-methoxythiazolo[5,4-b]pyridin-2-yl)spiro[indoline-3,3′-pyrrolidine]-1-carboxamide], the activity at 1 µM came to 597%.

`COC(=O)N1CC[C@@]2(C1)CN(C(=O)Nc1ncc(Cl)s1)c1ccc(Cl)cc12` [Example 351, (S)-methyl 5-chloro-1-((5-chlorothiazol-2-yl)carbamoyl)spiro[indoline-3,3′-pyrrolidine]-1′-carboxylate]: the activity at 1 µM came out at 886%. As for `CONC(=O)N1CCC2(C1)CN(C(=O)Nc1ncc(Cl)s1)c1ccc(Cl)cc12` (stereo not drawn) [Example 480, 5-Chloro-N1-(5-chlorothiazol-2-yl)-N1′-methoxyspiro[indoline-3,3′-pyrrolidine]-1,1′-dicarboxamide], the activity at 1 µM was 477%.

Turning to `COCCCN(Cc1ccccc1)S(=O)(=O)c1ccc2c(c1)C1(CCN(C(C)=O)C1)CN2C(=O)Nc1nc2ccc(OC)nc2s1` (stereo not drawn) [Example 289, 1′-Acetyl-5-(N-benzyl-N-(3-methoxypropyl)sulfamoyl)-N-(5-methoxythiazolo[5,4-b]pyridin-2-yl)spiro[indoline-3,3′-pyrrolidine]-1-carboxamide], the activity at 1 µM came to 752%. Consider `COC(=O)N1CCC2(C1)CN(C(=O)Nc1ncc(Cl)s1)c1ccc(Br)cc12` (stereo not drawn) [Example 13, Methyl 5-bromo-1-((5-chlorothiazol-2-yl)carbamoyl)spiro[indoline-3,3′-pyrrolidine]-1′-carboxylate], for which the activity at 1 µM was found to be 678%. For the compound `O=C(NCCO)N1CCC2(C1)CN(C(=O)Nc1ncc(Cl)s1)c1ccc(Cl)cc12` (stereo not drawn) [Example 459, 5-chloro-N1-(5-chlorothiazol-2-yl)-N1′-(2-hydroxyethyl)spiro[indoline-3,3′-pyrrolidine]-1,1′-dicarboxamide], the activity at 1 µM was 537%. In the case of `COCCN(CC1CC1)S(=O)(=O)c1ccc2c(c1)C1(CCN(C(C)=O)C1)CN2C(=O)Nc1nc2ccc(OC)nc2s1` (stereo not drawn) [Example 300, 1′-Acetyl-5-(N-(cyclopropylmethyl)-N-(2-methoxyethyl)sulfamoyl)-N-(5-methoxythiazolo[5,4-b]pyridin-2-yl)spiro[indoline-3,3′-pyrrolidine]-1-carboxamide], the activity at 1 µM amounted to 689%.
